Experimental data reported in patent US5821061A, “Method and reagent for detecting a ligand in a sample” (Toyo Boseki Kabushiki Kaisha, priority 1995, dated 1998).

Legend:
[1] = test system: alkaline phosphatase of Bacillus badius TE3593; assay: Substrate specificity of the alkaline phosphatase of Bacillus badius TE3593; assay type: biochemical; conditions: enzyme of Bacillus badius TE3593; for Relative Activity: substrate specificity, p-nitrophenyl phosphate = 100
[2] = test system: alkaline phosphatase of Bacillus badius TE3597; assay: Substrate specificity of the alkaline phosphatase of Bacillus badius TE3597; assay type: biochemical; conditions: enzyme of Bacillus badius TE3597; for Relative Activity: substrate specificity, p-nitrophenyl phosphate = 100
[3] = test system: alkaline phosphatase of Bacillus badius TE3592; assay: Substrate specificity of the alkaline phosphatase of Bacillus badius TE3592; assay type: biochemical; conditions: enzyme of Bacillus badius TE3592; for Relative Activity: substrate specificity, p-nitrophenyl phosphate = 100
[4] = literature; cited from earlier work
[5] = literature; temperature not given; cited from earlier work

Compound	Substrate specificity (acts on) [1]	Relative Activity [1]	Substrate specificity (acts on) [2]	Relative Activity [2]	Substrate specificity (acts on) [3]	Relative Activity [3]	Stability (in words) [4]	Specific activity [5]
alkaline phosphatase derived from Escherichia coli: alkaline phosphatase derived from Escherichia coli, used for dephosphorylation in molecular biology	–	–	–	–	–	–	good stability	60 U/mg
O=P(O)(O)OC1O[C@H](CO)[C@@H](O)[C@H](O)[C@H]1O (stereo partly drawn) [Glucose-1-phosphate]	–	1.44	acts on	25.0	–	0	–	–
O=P(O)(O)OC(CO)CO [β-Glycerophosphate]	acts on	78.1	acts on	67.5	acts on	49.7	–	–
NCCOP(=O)(O)O [Phosphoethanolamine]	acts on	73.8	acts on	67.0	acts on	44.4	–	–

Further lines, with some results ahead:

Substrate specificity (acts on) [1]	Relative Activity [1]	Substrate specificity (acts on) [2]	Relative Activity [2]	Substrate specificity (acts on) [3]	Relative Activity [3]	Compound	Stability (in words) [4]	Specific activity [5]
acts on	44.3	acts on	34.5	acts on	14.8	O=P(O)(O)OC[C@H]1OC(O)[C@H](O)[C@@H](O)[C@@H]1O (stereo partly drawn) [Glucose-6-phosphate]	–	–
acts on	90.5	acts on	15.4	acts on	15.4	NC(=O)c1ccc[n+]([C@@H]2O[C@H](COP(=O)([O-])OP(=O)(O)OC[C@H]3O[C@@H](n4cnc5c(N)ncnc54)[C@H](OP(=O)(O)O)[C@@H]3O)[C@@H](O)[C@H]2O)c1 [NADP]	–	–
acts on	71.4	acts on	67.0	acts on	37.9	O=P(O)(O)OCC(O)CO (racemic) [DL-α-Glycerophosphate]	–	–
